Results from article doi:10.1101/2024.08.25.609621 (bioRxiv, 2024).
Like-named read-outs stand apart in the source and are kept apart here.

Biological target: SARS-CoV-2 NSP3 macrodomain (Mac1), P43 crystal form (Severe acute respiratory syndrome coronavirus 2, UniProt P0DTD1)
Type: binding
Conditions: for 1-BDC: PanDDA background density correction; for Total number of conformations: ligand conformations modeled in Mac1 crystal structure; for 2*(1-BDC) (%): occupancy estimate from PanDDA 1-BDC; for X-ray crystallography: Binding site: site where the ligand is bound in the X-ray crystal structure; for X-ray crystal structure: X-ray crystal structure determined (TRUE); for Binding site: site of ligand in X-ray crystal structure
[1] = crystal soak 10 mM, P43 crystals
[2] = crystal soak 10 mM, TFA/DMSO background map
[3] = crystal soak, soak concentration 10 mM
[4] = crystal soak, soak concentration 10 mM, TRUE = ligand hit

SMILES | 1-BDC | Pandda run, overall: Hit [1] | Pandda run, overall: Modeled [1] | Pandda run, overall: Modeling comment [1] | PanDDA run, DMSO background map: 1-BDC (crystal soak 10 mM) | PanDDA run, DMSO background map: Hit (crystal soak 10 mM) | Total number of conformations | 2*(1-BDC) (%) | X-ray crystallography: Binding site | X-ray crystal structure | Binding site | PanDDA run, TFA/DMSO background map: 1-BDC [2] | PanDDA run, TFA/DMSO background map: Hit [2] | Pandda run, overall: Modeled [3] | Pandda run, overall: Hit [4] | PanDDA run, DMSO background map: 1-BDC (soak concentration 10 mM) | PanDDA run, DMSO background map: Hit (soak concentration 10 mM) | Pandda run, overall: Modeling comment [3]
O=C(O)C(F)(F)F.OCC12CC(CN1c1ncnc3[nH]ccc13)C2 [AVI-3681] | 0.22 | TRUE | TRUE | Distal site, weak density, not modeled | 0.22 | TRUE | 1 | 44 | Adenosine | – | – | – | – | – | – | – | – | –
Cc1ccc(CC(CO)Nc2ncnc3[nH]ccc23)cc1 (centres unmarked) [AVI-3683] | 0.15 | TRUE | TRUE | – | 0.15 | TRUE | 2 | 30 | – | TRUE | Adenosine | – | – | – | – | – | – | –
Cc1ccc(CC(CO)Nc2ncnc3[nH]ccc23)cc1C (centres unmarked) [AVI-3684] | 0.15 | TRUE | TRUE | – | 0.15 | TRUE | 2 | 30 | – | TRUE | Adenosine | – | – | – | – | – | – | –
OCC1CCCN1c1ncnc2[nH]ccc12 (centres unmarked) [AVI-3685] | 0.25 | TRUE | TRUE | – | 0.25 | TRUE | 1 | 50 | Adenosine | – | – | – | – | – | – | – | – | –
OCC(Cc1ccc(I)cc1)Nc1ncnc2[nH]ccc12 (centres unmarked) [AVI-3686] | 0.2 | TRUE | TRUE | – | 0.2 | TRUE | 2 | 40 | – | TRUE | Adenosine | – | – | – | – | – | – | –
O=C(O)C(F)(F)F.OCC(Nc1ncnc2[nH]ccc12)C(O)C1CCCCC1 (centres unmarked) [AVI-3687] | – | TRUE | – | Weak density, not modeled | 0.15 | TRUE | – | – | – | – | – | 0.08 | TRUE | – | – | – | – | –
O=C(O)C(F)(F)F.OCC1(Nc2ncnc3[nH]ccc23)CC1 [AVI-3688] | 0.2 | TRUE | TRUE | – | 0.2 | TRUE | 1 | 40 | – | TRUE | Adenosine | – | – | – | – | – | – | –
OCC(CC1CCCCC1)Nc1ncnc2[nH]ccc12 (centres unmarked) [AVI-3690] | 0.12 | TRUE | TRUE | Weak density for alternative ligand conformation | 0.12 | TRUE | 1 | 24 | – | TRUE | Adenosine | – | – | – | – | – | – | –
OCC(CC1CCCC1)Nc1ncnc2[nH]ccc12 (centres unmarked) [AVI-3691] | 0.18 | TRUE | TRUE | – | 0.18 | TRUE | 1 | 36 | – | TRUE | Adenosine | – | – | – | – | – | – | –
OCC(Nc1ncnc2[nH]ccc12)C1CCc2ccccc21 (centres unmarked) [AVI-3693] | 0.22 | TRUE | TRUE | – | 0.22 | TRUE | 2 | 44 | – | TRUE | Adenosine | – | – | – | – | – | – | –
OCC(Cc1ccccn1)Nc1ncnc2[nH]ccc12 (centres unmarked) [AVI-3696] | 0.13 | TRUE | TRUE | – | 0.13 | TRUE | 2 | 26 | – | TRUE | Adenosine | – | – | – | – | – | – | –
OCC(O)C1CCCN1c1ncnc2[nH]ccc12 (centres unmarked) [AVI-3701] | 0.18 | – | – | – | – | – | 1 | 36 | Adenosine | – | – | – | – | TRUE | TRUE | 0.18 | TRUE | –
O=C(O)C(F)(F)F.OC[C@H]1CC2(CN1c1ncnc3[nH]ccc13)OCCO2 [AVI-3702] | 0.21 | – | – | – | – | – | 1 | 42 | Adenosine | – | – | – | – | TRUE | TRUE | 0.21 | TRUE | –
OCC(Cc1cncs1)Nc1ncnc2[nH]ccc12 (centres unmarked) [AVI-3703] | 0.15 | – | – | – | – | – | 1 | 30 | – | TRUE | Adenosine | – | – | TRUE | TRUE | 0.15 | TRUE | –
OCC(Cc1ccoc1)Nc1ncnc2[nH]ccc12 (centres unmarked) [AVI-3705] | 0.21 | – | – | – | – | – | 1 | 42 | – | TRUE | Adenosine | – | – | TRUE | TRUE | 0.21 | TRUE | –
O=C(O)C(F)(F)F.OCC(Cc1cccc(F)c1)Nc1ncnc2[nH]ccc12 (centres unmarked) [AVI-3706] | – | – | – | – | – | – | – | – | – | – | – | – | – | – | – | – | – | TFA only
OCC1CC2(CCOCC2)CN1c1ncnc2[nH]ccc12 (centres unmarked) [AVI-3707] | 0.21 | – | – | – | – | – | 1 | 42 | Adenosine | – | – | – | – | TRUE | TRUE | 0.21 | TRUE | Distal site, weak density, not modeled
OCC(COCc1ccccc1)Nc1ncnc2[nH]ccc12 (centres unmarked) [AVI-3709] | 0.19 | – | – | – | – | – | 2 | 38 | – | TRUE | Adenosine | – | – | TRUE | TRUE | 0.19 | TRUE | –
O=C(O)C(F)(F)F.OC[C@@H]1CC2(CC2)CN1c1ncnc2[nH]ccc12 [AVI-3710] | 0.26 | – | – | – | – | – | 2 | 52 | Adenosine | – | – | – | – | TRUE | TRUE | 0.26 | TRUE | Weak density for open state of Phe132 loop
